Results: patent publication US20130045983A1, “HSP90 INHIBITORS FOR THERAPEUTIC TREATMENT” (Novartis AG, priority 2008, published 2013)
pIC50: −log10 of the molar value.

Experiments:
Type in all cases: cell-based
LXFA 677 = experiment: Clonogenic assay, LXFA 677; settings: Homo sapiens, Lung, non-small cell, Adenocarcinoma, soft agar, read-out: IC50 (colony formation)
Method: (§1) The anticancer activity of (R)-2-amino-7-[2-(6-methoxy-pyridin-2-yl)-phenyl]-4-methyl-7,8-dihydro-6H-pyrido[4,3-d]pyrimidin-5-one is evaluated in 30 human tumor xenografts in vitro using a clonogenic assay. In this assay, human cells derived from cancer patients are evaluated for the capacity of (R)-2-amino-7-[2-(6-methoxy-pyridin-2-yl)-phenyl]-4-methyl-7,8-dihydro-6H-pyrido[4,3-d]pyrimidin-5-one to inhibit the formation of 3 dimensional colonies. […] The tumor xenografts which have never been cultured in cell culture plastic dishes are isolated from nude mice. Tumor cell suspensions are prepared and incubated in 24 well plates containing layers of soft agar. Under these conditions a special subpopulation of cells selectively grows to colonies. (R)-2-amino-7-[2-(6-methoxy-pyridin-2-yl)-phenyl]-4-methyl-7,8-dihydro-6H-pyrido[4,3-d]pyrimidin-5one is tested in 6 concentrations up to 1000 nM. The tumor test panel comprises 1 to 10 models of 12 different human tumor types, which were bladder cancer, colon, gastric, non small cell lung (adeno, squamous cell, and large cell), small cell lung, mammary, ovary, and prostate cancer, as well as leukemia, lymphoma, melanoma, and sarcoma. Antitumor effects are recorded as inhibition of colony formation in relation to untreated controls. […]

LXFL 1176 = experiment: Clonogenic assay, LXFL 1176; settings: Homo sapiens, Lung, non-small cell, Mucous large cell lung carcinoma, soft agar, read-out: IC50 (colony formation)
Method: as §1

LXFA 629 = experiment: Clonogenic assay, LXFA 629; settings: Homo sapiens, Lung, non-small cell, Adenocarcinoma, soft agar, read-out: IC50 (colony formation)
Method: as §1

MAXF 1162 = experiment: Clonogenic assay, MAXF 1162; settings: Homo sapiens, Breast, invasive ductal carcinoma, soft agar, read-out: IC50 (colony formation)
Method: as §1

MAXF 1322 = experiment: Clonogenic assay, MAXF 1322; settings: Homo sapiens, Breast, Pap. adenocarcinoma, soft agar, read-out: IC50 (colony formation)
Method: as §1

PRXF PC3M = experiment: Clonogenic assay, PRXF PC3M; settings: Homo sapiens, PC-3M, Prostate, Adenocarcinoma, metastatic, soft agar, read-out: IC50 (colony formation)
Method: as §1

GTL-16 = experiment: Cell proliferation assay, GTL-16 (gastric); settings: Homo sapiens, 72 hours in presence of compound
Method: (§2) Seventeen cancer derived cell lines are used (GTL-16, N87, H1975, A549, H69, A2780, PC3, BT474, SKBR3, MCF-7, A375, MV4;11, K562, KM12L4A, H929, OPM-2 and KMS-11) to test the effect of (R)-2-amino-7-[2-(6-methoxy-pyridin-2-yl)-phenyl]-4-methyl-7,8-dihydro-6H-pyrido[4,3-d]pyrimidin-5-one. These cell lines cover the following 9 tumor types: Gastric, Lung, Ovarian, Prostate, Breast, Melanoma, Leukemia, Colon and Multiple myeloma. After division and medium change, cells from stock culture are seeded on cell plates and cultured for about 18 hours to allow cell growth and attachment before starting the assay. Then on the first day of the assay, (R)-2-amino-7-[2-(6-methoxy-pyridin-2-yl)-phenyl]-4-methyl-7,8-dihydro-6H-pyrido[4,3-d]pyrimidin-5-one is added to the medium at various concentrations. Cells are cultured up to 72 or 96 hours and cell proliferation is determined using commercially available cell proliferation kits.
(§3) Table 1 relates to the concentration in nM of (R)-2-amino-7-[2-(6-methoxy-pyridin-2-yl)-phenyl]-4-methyl-7,8-dihydro-6H-pyrido[4,3-d]pyrimidin-5-one which inhibits cell proliferation by 50% (IC50). […]

LXFA 289 = experiment: Clonogenic assay, LXFA 289; settings: Homo sapiens, Lung, non-small cell, Adenocarcinoma, soft agar, read-out: IC50 (colony formation)
Method: as §1

MCF-7 = experiment: Cell proliferation assay, MCF-7 (breast); settings: Homo sapiens, MCF7, 72 hours in presence of compound
Method: as §2, §3

CXF 1103 = experiment: Clonogenic assay, CXF 1103; settings: Homo sapiens, CXF1103, Colon, Adenocarcinoma, soft agar, read-out: IC50 (colony formation)
Method: as §1

GXF 209 = experiment: Clonogenic assay, GXF 209; settings: Homo sapiens, Stomach, Signet-ring cell carcinoma, soft agar, read-out: IC50 (colony formation)
Method: as §1

BXF 1218 = experiment: Clonogenic assay, BXF 1218; settings: Homo sapiens, Bladder, Transitional cell carcinoma, soft agar, read-out: IC50 (colony formation)
Method: as §1

SXF 1186 = experiment: Clonogenic assay, SXF 1186; settings: Homo sapiens, Sarcoma, Osteoblastic osteosarcoma, soft agar, read-out: IC50 (colony formation)
Method: as §1

K562 = experiment: Cell proliferation assay, K562 (leukemia); settings: Homo sapiens, 72 hours in presence of compound
Method: as §2, §3

KMS-11 = experiment: Cell proliferation assay, KMS-11 (multiple myeloma); settings: Homo sapiens, 72 hours in presence of compound
Method: as §2, §3

LYXF U937 = experiment: Clonogenic assay, LYXF U937; settings: Homo sapiens, U-937, Histiocytic lymphoma, soft agar, read-out: IC50 (colony formation)
Method: as §1

PRXF MRIH1579 = experiment: Clonogenic assay, PRXF MRIH1579; settings: Homo sapiens, Prostate, Adenocarcinoma, soft agar, read-out: IC50 (colony formation)
Method: as §1

LXFA 737 = experiment: Clonogenic assay, LXFA 737; settings: Homo sapiens, Lung, non-small cell, Adenocarcinoma, soft agar, read-out: IC50 (colony formation)
Method: as §1

SXF 1410 = experiment: Clonogenic assay, SXF 1410; settings: Homo sapiens, Sarcoma, Fibroblastic osteosarcoma, soft agar, read-out: IC50 (colony formation)
Method: as §1

A2780 = experiment: Cell proliferation assay, A2780 (ovarian); settings: Homo sapiens, 72 hours in presence of compound
Method: as §2, §3

OPM-2 = experiment: Cell proliferation assay, OPM-2 (multiple myeloma); settings: Homo sapiens, 72 hours in presence of compound
Method: as §2, §3

SMILES: COc1cccc(-c2ccccc2[C@H]2Cc3nc(N)nc(C)c3C(=O)N2)n1 [(R)-2-amino-7-[2-(6-methoxy-pyridin-2-yl)-phenyl]-4-methyl-7,8-dihydro-6H-pyrido[4,3-d]pyrimidin-5-one]
- pIC50 (LXFA 677): 7.57
- pIC50 (LXFL 1176): 7.68
- pIC50 (LXFA 629): 7.57
- pIC50 (MAXF 1162): 8.22
- pIC50 (MAXF 1322): 7.28
- pIC50 (PRXF PC3M): 6.56
- GI50 (GTL-16): 18 nM
- pIC50 (LXFA 289): 6.19
- GI50 (MCF-7): 8 nM
- pIC50 (CXF 1103): 7.57
- pIC50 (GXF 209): 7.55
- pIC50 (BXF 1218): 7.59
- pIC50 (SXF 1186): 7.68
- GI50 (K562): 24 nM
- GI50 (KMS-11): 7 nM
- pIC50 (LYXF U937): 7.55
- pIC50 (PRXF MRIH1579): < 6.00
- pIC50 (LXFA 737): 7.59
- pIC50 (SXF 1410): < 6.00
- GI50 (A2780): 27 nM
- GI50 (OPM-2): 13 nM
